Experimental data from patent publication US20140113898A1, “BISARYLSULFONE AND DIALKYLARYLSULFONE COMPOUNDS AS CALCIUM CHANNEL BLOCKERS” (Zalicus Pharmaceuticals Ltd., priority 2010, published 2014).

Target: T1, CaV2.2 (Homo sapiens, UniProt Q00975)
T1 construct: expressed in transfected cells; host or cells: unnamed doxycycline-inducible cell line
Assay: High-throughput CaV2.2/Kir2.3 FLIPR fluorescent assay
Format: cell-based
Conditions: FLIPR data CaV2.2 (nM), Table 5; Fluo-4 FLIPR; closed or inactivated state not stated
Method: Cells were plated in 384-well, clear-bottom, black-walled, poly-D-lysine coated plates (Becton Dickinson, Franklin Lake, N.J.) 2 days prior to use in the FLIPR assay. 100 μL of cells (1.4×10^6 cell/mL) containing doxycyline (Sigma-Aldrich, 1.5 μg/mL; to induce channel expression) were added to each well using a Multidrop (Thermo Scientific, Waltham, Mass.) and were maintained in 5% CO2 incubator at 37° C. On the morning of the assay, cells were transferred to a 5% CO2 incubator at 29° C.
Cells were washed with a wash buffer containing (in mM): 118 NaCl, 18.4 HEPES, 11.7 D-glucose, 2 CaCl2, 0.5 MgSO4, 4.7 KCl, 1.2 KH2PO4, pH adjusted to 7.2 with NaOH. 4.4 μM of the fluorescent indicator dye, Fluo-4 (Invitrogen), prepared in pluronic acid (Sigma-Aldrich), was loaded into the wells and incubated for 45 minutes at 29° C. in 5% CO2. Cells were then rinsed with either a 2 mM KCl closed-state buffer (in mM: 138.5 NaCl, 10 HEPES, 10 D-glucose, 1 CaCl2, and 2 KCl, with the pH adjusted to 7.4 with NaOH) when performing the closed-state assay or 12.5 mM KCl inactivated-state buffer (in mM: 128 NaCl, 10 HEPES, 10 D-glucose, 1 CaCl2, and 12.5 mM KCl, with the pH adjusted to 7.4 with NaOH) when performing the inactivated-state assay.
Calcium entry was evoked with an addition of 130 mM KCl stimulation buffer (in mM: 10.5 NaCl, 10 HEPES, 10 D-glucose, 1 CaCl2, and 130 KCl, with the pH adjusted to 7.4 with NaOH) for both the closed-state or inactivated-state assay. A change in the Fluo-4 fluorescence signal was assessed using FLIPR^TETRA™ instrument (Molecular Devices, Sunnyvale, Calif.) for 3 minutes following the elevation of extracellular KCl using an illumination wavelength of 470-495 nm with emissions recorded at 515-575 nm.
Concentration-dependent response curves were obtained by comparing the fluorescence signal in the presence of compound and fitted with a logistic function (1) to obtain the concentration that inhibited 50% (IC50) of the RLU signal using OriginPro v.7.5 software (OriginLab, Northampton, Mass.).
To assess the quality of the FLIPR assays the Z-factor (2) was used to quantify the suitability of the assay conditions using the following equation: […]
Data are expressed as mean and standard deviation (SD).

T1 sequence (Q00975 whole entry): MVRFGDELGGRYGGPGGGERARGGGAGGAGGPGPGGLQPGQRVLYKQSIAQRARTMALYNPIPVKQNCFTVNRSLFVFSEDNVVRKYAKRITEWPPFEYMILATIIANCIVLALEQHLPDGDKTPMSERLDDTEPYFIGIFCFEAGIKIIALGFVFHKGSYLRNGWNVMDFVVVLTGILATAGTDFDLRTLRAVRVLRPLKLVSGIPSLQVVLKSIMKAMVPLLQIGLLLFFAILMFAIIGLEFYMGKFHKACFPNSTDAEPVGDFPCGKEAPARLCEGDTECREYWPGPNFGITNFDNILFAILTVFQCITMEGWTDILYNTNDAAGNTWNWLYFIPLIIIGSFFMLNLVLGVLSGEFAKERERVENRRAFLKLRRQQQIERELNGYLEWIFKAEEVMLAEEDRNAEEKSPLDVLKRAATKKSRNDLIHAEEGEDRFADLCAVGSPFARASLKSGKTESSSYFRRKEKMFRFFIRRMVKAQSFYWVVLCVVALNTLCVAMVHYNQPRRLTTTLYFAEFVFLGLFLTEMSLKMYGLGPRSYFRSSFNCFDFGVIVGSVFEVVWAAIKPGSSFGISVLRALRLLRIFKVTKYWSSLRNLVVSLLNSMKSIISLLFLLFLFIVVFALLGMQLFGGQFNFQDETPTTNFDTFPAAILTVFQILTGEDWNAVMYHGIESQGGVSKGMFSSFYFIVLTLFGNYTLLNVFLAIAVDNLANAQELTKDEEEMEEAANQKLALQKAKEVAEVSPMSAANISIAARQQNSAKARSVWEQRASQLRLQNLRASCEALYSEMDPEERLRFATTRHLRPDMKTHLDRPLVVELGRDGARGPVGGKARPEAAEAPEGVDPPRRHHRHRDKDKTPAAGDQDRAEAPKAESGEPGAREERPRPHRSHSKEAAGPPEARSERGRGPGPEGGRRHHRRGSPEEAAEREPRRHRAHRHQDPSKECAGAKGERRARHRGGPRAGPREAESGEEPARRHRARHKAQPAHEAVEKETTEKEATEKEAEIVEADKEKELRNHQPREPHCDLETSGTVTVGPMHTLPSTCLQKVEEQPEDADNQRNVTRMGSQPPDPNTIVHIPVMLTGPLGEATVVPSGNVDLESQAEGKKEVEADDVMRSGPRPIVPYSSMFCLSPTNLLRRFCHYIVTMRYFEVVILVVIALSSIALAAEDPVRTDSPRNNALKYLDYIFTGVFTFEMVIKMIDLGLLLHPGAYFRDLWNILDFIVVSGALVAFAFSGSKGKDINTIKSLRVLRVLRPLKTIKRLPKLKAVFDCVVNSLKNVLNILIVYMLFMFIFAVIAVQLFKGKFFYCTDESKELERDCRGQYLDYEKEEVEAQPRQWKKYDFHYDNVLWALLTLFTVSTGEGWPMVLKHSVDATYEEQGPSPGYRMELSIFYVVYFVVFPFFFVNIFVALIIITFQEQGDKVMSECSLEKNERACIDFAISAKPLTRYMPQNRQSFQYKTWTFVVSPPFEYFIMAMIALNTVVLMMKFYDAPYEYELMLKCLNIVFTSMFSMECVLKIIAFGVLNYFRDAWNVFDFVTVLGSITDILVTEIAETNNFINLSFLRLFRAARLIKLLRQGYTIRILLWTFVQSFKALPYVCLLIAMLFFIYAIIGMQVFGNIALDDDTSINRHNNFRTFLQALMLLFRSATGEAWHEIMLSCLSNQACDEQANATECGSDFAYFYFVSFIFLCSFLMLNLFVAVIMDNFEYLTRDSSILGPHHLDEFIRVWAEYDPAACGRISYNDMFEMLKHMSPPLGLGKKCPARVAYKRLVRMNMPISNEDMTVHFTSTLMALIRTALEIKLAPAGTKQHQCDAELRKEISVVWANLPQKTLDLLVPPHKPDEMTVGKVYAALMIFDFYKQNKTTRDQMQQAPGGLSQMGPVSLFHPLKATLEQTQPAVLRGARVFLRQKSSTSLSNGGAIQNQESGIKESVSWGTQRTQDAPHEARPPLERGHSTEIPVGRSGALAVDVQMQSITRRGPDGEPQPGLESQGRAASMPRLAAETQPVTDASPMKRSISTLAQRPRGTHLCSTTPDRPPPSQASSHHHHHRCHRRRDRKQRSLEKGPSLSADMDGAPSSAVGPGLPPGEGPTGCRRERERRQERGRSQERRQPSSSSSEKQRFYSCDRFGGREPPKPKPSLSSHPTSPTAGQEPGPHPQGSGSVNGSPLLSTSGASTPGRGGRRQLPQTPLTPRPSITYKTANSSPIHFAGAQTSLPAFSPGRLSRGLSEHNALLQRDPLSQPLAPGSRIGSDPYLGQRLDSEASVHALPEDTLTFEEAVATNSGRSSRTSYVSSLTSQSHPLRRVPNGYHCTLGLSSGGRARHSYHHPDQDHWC
T1 sequence (P54284 whole entry partner): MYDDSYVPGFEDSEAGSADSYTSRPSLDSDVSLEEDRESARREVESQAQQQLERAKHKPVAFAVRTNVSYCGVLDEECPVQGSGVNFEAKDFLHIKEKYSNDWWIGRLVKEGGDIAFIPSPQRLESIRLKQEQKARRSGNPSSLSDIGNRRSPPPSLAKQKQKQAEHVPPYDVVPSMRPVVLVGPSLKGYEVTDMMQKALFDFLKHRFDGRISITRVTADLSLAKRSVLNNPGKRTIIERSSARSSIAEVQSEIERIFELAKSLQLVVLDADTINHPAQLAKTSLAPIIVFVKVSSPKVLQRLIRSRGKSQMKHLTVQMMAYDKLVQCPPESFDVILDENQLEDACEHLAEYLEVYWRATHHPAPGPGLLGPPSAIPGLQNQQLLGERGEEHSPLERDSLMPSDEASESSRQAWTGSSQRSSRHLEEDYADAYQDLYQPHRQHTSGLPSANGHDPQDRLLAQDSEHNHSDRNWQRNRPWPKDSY
T1 sequence (P54289 25-946 partner limits assumed): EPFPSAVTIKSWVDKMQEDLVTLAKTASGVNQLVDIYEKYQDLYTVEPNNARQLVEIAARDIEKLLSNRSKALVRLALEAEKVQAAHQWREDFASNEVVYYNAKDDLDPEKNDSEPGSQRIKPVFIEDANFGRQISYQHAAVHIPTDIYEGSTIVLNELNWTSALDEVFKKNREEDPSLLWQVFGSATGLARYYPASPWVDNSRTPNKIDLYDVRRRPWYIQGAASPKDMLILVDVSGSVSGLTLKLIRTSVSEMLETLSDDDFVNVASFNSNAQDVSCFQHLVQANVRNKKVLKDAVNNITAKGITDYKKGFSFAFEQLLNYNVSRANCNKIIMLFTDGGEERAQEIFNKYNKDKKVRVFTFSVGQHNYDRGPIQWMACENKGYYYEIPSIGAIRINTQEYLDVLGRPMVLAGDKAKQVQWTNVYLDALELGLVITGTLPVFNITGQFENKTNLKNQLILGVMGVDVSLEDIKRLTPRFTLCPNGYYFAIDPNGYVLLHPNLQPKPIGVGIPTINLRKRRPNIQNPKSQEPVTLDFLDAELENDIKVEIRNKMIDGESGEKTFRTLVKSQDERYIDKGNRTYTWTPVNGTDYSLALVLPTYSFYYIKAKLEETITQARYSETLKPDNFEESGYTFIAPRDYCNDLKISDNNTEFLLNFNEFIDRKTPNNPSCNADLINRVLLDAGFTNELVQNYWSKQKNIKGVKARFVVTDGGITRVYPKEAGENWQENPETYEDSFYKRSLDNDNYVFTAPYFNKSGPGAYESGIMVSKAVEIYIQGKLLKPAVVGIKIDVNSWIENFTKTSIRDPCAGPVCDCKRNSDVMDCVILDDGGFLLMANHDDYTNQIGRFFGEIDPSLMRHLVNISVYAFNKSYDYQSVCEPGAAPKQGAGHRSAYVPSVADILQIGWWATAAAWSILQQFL
T1 sequence (P54289 947-1103 partner limits assumed): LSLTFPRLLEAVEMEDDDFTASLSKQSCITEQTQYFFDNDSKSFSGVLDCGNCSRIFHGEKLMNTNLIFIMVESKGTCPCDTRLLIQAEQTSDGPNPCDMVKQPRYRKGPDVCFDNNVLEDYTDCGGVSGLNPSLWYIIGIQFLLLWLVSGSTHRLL

| SMILES | IC50 |
| --- | --- |
| CC(C)C[C@H](CN)CC(=O)NCCC(C)(C)S(=O)(=O)c1cccc(C(F)(F)F)c1 [Compound 224, (S)-3-(aminomethyl)-5-methyl-N-(3-methyl-3-((3-(trifluoromethyl)phenyl)sulfonyl)butyl)hexanamide] | 470 nM |

Same assay, conditions: Table 4; Fluo-4 FLIPR; closed or inactivated state not stated; read-out: FLIPR data CaV2.2

| SMILES | IC50 |
| --- | --- |
| O=C(NCc1ccccc1S(=O)(=O)c1cccc(C(F)(F)F)c1)c1ccnc(C(F)(F)F)n1 [Compound 46, 2-(trifluoromethyl)-N-(2-((3-(trifluoromethyl)phenyl)sulfonyl)benzyl)pyrimidine-4-carboxamide] | 1740 nM |
| O=C(NCc1cc(S(=O)(=O)c2cccc(C(F)(F)F)c2)ccn1)c1ccnn1CC(F)(F)F [Compound 112, 1-(2,2,2-trifluoroethyl)-N-((4-((3-(trifluoromethyl)phenyl)sulfonyl)pyridin-2-yl)methyl)-1H-pyrazole-5-carboxamide] | 1030 nM |
| NC1(C(=O)NCc2ccc(S(=O)(=O)c3cccc(C(F)(F)F)c3)cc2)CC1 [Compound 65, 1-amino-N-(4-((3-(trifluoromethyl)phenyl)sulfonyl)benzyl)cyclopropanecarboxamide] | 5630 nM |
| O=C(NCc1ccc(S(=O)(=O)c2cccc(C(F)(F)F)c2)cn1)[C@H]1CCCN1 [Compound 108, (R)-N-((5-((3-(trifluoromethyl)phenyl)sulfonyl)pyridin-2-yl)methyl)pyrrolidine-2-carboxamide] | 2600 nM |
| CN1CCCCC1C(=O)NCc1ccc(S(=O)(=O)c2cccc(C(F)(F)F)c2)cc1 (centres unmarked) [Compound 84, 1-methyl-N-(4-((3-(trifluoromethyl)phenyl)sulfonyl)benzyl)piperidine-2-carboxamide] | 2280 nM |
| O=C(NCc1ccccc1S(=O)(=O)c1cccc(C(F)(F)F)c1)c1cnc(C(F)(F)F)nc1 [Compound 45, 2-(trifluoromethyl)-N-(2-((3-(trifluoromethyl)phenyl)sulfonyl)benzyl)pyrimidine-5-carboxamide] | 1110 nM |
| O=C(NCc1ccccc1S(=O)(=O)c1cccc(C(F)(F)F)c1)c1ccnc(C(F)(F)F)c1 [Compound 50, 2-(trifluoromethyl)-N-(2-((3-(trifluoromethyl)phenyl)sulfonyl)benzyl)isonicotinamide] | 1210 nM |
| O=C(NCc1cc(S(=O)(=O)c2cccc(C(F)(F)F)c2)ccn1)c1cn2cc(C(F)(F)F)ccc2n1 [Compound 116, 6-(trifluoromethyl)-N-((4-((3-(trifluoromethyl)phenyl)sulfonyl)pyridin-2-yl)methyl)imidazo[1,2-a]pyridine-2-carboxamide] | 1170 nM |
| O=C(NCc1ccc(S(=O)(=O)c2cccc(C(F)(F)F)c2)cn1)c1ccnn1CC(F)(F)F [Compound 100, 1-(2,2,2-trifluoroethyl)-N-((5-((3-(trifluoromethyl)phenyl)sulfonyl)pyridin-2-yl)methyl)-1H-pyrazole-5-carboxamide] | 1320 nM |
| O=C(CCC(F)(F)F)NCc1ccccc1S(=O)(=O)c1cccc(C(F)(F)F)c1 [Compound 55, 4,4,4-trifluoro-N-(2-((3-(trifluoromethyl)phenyl)sulfonyl)benzyl)butanamide] | 2680 nM |

Same assay, conditions: Table 5; Fluo-4 FLIPR; closed or inactivated state not stated; read-out: FLIPR data CaV2.2

| SMILES | IC50 |
| --- | --- |
| CC(C)(C(=O)NCC(O)c1ccccc1Cl)S(=O)(=O)c1cccc(C(F)(F)F)c1 (centres unmarked) [Compound 141, N-(2-(2-chlorophenyl)-2-hydroxyethyl)-2-methyl-2-((3-(trifluoromethyl)phenyl)sulfonyl)propanamide] | 1090 nM |
| CC(C)(CCNC(=O)c1cn2cc(C(F)(F)F)ccc2n1)S(=O)(=O)c1cc(F)cc(C(F)(F)F)c1 [Compound 214, N-(3-((3-fluoro-5-(trifluoromethyl)phenyl)sulfonyl)-3-methylbutyl)-6-(trifluoromethyl)imidazo[1,2-a]pyridine-2-carboxamide] | 1310 nM |
| CC(C)(N)C(=O)NCCC(C)(C)S(=O)(=O)c1cccc(C(F)(F)F)c1 [Compound 201, 2-amino-2-methyl-N-(3-methyl-3-((3-(trifluoromethyl)phenyl)sulfonyl)butyl)propanamide] | 10000 nM |
| CC(C)(CCNC(=O)c1ccc(C(F)(F)F)cc1S(C)(=O)=O)S(=O)(=O)c1cc(F)cc(C(F)(F)F)c1 [Compound 213, N-(3-((3-fluoro-5-(trifluoromethyl)phenyl)sulfonyl)-3-methylbutyl)-2-(methylsulfonyl)-4-(trifluoromethyl)benzamide] | 1120 nM |
| CC(C)(CCNC(=O)Cc1cccc(S(C)(=O)=O)c1)S(=O)(=O)c1cccc(C(F)(F)F)c1 [Compound 193, N-(3-methyl-3-((3-(trifluoromethyl)phenyl)sulfonyl)butyl)-2-(3-(methylsulfonyl)phenyl)acetamide] | 1680 nM |
| CC(C)(CNC(=O)c1ccc(C(F)(F)F)nc1S(C)(=O)=O)S(=O)(=O)c1cccc(C(F)(F)F)c1 [Compound 155, N-(2-methyl-2-((3-(trifluoromethyl)phenyl)sulfonyl)propyl)-2-(methylsulfonyl)-6-(trifluoromethyl)nicotinamide] | 1360 nM |
| CC(C)(CCNC(=O)[C@@H]1C[C@@H](O)CN1)S(=O)(=O)c1cccc(C(F)(F)F)c1 [Compound 217, (2S,4R)-4-hydroxy-N-(3-methyl-3-((3-(trifluoromethyl)phenyl)sulfonyl)butyl)pyrrolidine-2-carboxamide] | 8170 nM |
| CC(C)(C)C(=O)Nc1ncccc1C(=O)NCC(C)(C)S(=O)(=O)c1cccc(C(F)(F)F)c1 [Compound 163, N-(2-methyl-2-((3-(trifluoromethyl)phenyl)sulfonyl)propyl)-2-pivalamidonicotinamide] | 2250 nM |
| CC(C)(CNC(=O)c1ccc(F)cc1Cl)S(=O)(=O)c1cccc(C(F)(F)F)c1 [Compound 159, 2-chloro-4-fluoro-N-(2-methyl-2-((3-(trifluoromethyl)phenyl)sulfonyl)propyl)benzamide] | 1320 nM |
| CC(C)(CCNC(=O)[C@H]1CCCC[C@@H]1N)S(=O)(=O)c1cccc(C(F)(F)F)c1 [Compound 208, (1S,2S)-2-amino-N-(3-methyl-3-((3-(trifluoromethyl)phenyl)sulfonyl)butyl)cyclohexanecarboxamide] | 1750 nM |
| CNC(C)(C)C(=O)NCCC(C)(C)S(=O)(=O)c1cccc(C(F)(F)F)c1 [Compound 204, 2-methyl-N-(3-methyl-3-((3-(trifluoromethyl)phenyl)sulfonyl)butyl)-2-(methylamino)propanamide] | 10200 nM |
| CC(C)(NC(=O)CC(C)(C)S(=O)(=O)c1cccc(C(F)(F)F)c1)c1ccccc1 [Compound 152, 3-methyl-N-(2-phenylpropan-2-yl)-3-((3-(trifluoromethyl)phenyl)sulfonyl)butanamide] | 4240 nM |
| CC(C)(CNC(=O)c1ncc(C(F)(F)F)cc1S(C)(=O)=O)S(=O)(=O)c1cccc(C(F)(F)F)c1 [Compound 156, N-(2-methyl-2-((3-(trifluoromethyl)phenyl)sulfonyl)propyl)-3-(methylsulfonyl)-5-(trifluoromethyl)picolinamide] | 1080 nM |
| CC(C)(CCNC(=O)C1(N)CCOCC1)S(=O)(=O)c1cccc(C(F)(F)F)c1 [Compound 197, 4-amino-N-(3-methyl-3-((3-(trifluoromethyl)phenyl)sulfonyl)butyl)tetrahydro-2H-pyran-4-carboxamide] | 10000 nM |
| CC(C)(CNC(=O)c1ccc(S(C)(=O)=O)cc1)S(=O)(=O)c1cccc(C(F)(F)F)c1 [Compound 171, N-(2-methyl-2-((3-(trifluoromethyl)phenyl)sulfonyl)propyl)-4-(methylsulfonyl)benzamide] | 8120 nM |
| CC(C)(CCNC(=O)[C@@H]1CCCN1)S(=O)(=O)c1cccc(C(F)(F)F)c1 [Compound 219, (S)-N-(3-methyl-3-((3-(trifluoromethyl)phenyl)sulfonyl)butyl)pyrrolidine-2-carboxamide] | 3230 nM |
| CC(C)S(=O)(=O)c1cccnc1C(=O)NCCC(C)(C)S(=O)(=O)c1cccc(C(F)(F)F)c1 [Compound 211, 3-(isopropylsulfonyl)-N-(3-methyl-3-((3-(trifluoromethyl)phenyl)sulfonyl)butyl)picolinamide] | 1100 nM |
| Cc1cncc(C(=O)NCC(C)(C)S(=O)(=O)c2cccc(C(F)(F)F)c2)c1 [Compound 173, 5-methyl-N-(2-methyl-2-((3-(trifluoromethyl)phenyl)sulfonyl)propyl)nicotinamide] | 9060 nM |
